Measured values taken from patent US20260216226A1, “TRIPLE COMBINED THERAPY INHIBITING EGFR, RAF1 AND STAT3 AGAINST PANCREATIC DUCTAL ADENOCARCINOMA” (FUNDACION DEL SECTOR PUBLICO ESTATAL CENTRO NACIONAL DE …, priority 2023, published 2026).

How the values were obtained:
STAT3 [1] = settings: Kras mutant pancreatic and colon cancer cells; cited from earlier work
[2] = test system: NR PDACs (tumors of big sizes); experiment: Tumor growth monitored by ultrasound in genetically engineered mice; type: in vivo, mouse; settings: NR triple: SD-36 50 mg/kg daily added to tamoxifen and Afatinib 20 mg/kg daily
Description: (§1) Silencing of Egfr, Raf1 and Stat3 was mediated with the lentiviral short hairpin RNA (shRNA) plasmids TRCN0000055218, TRCN0000012628 and TRCN0000071453 respectively. The non-target shRNA vector was used as control. The pharmacological treatments were conducted with the following agents: Afatinib (20 mg/kg, daily), SD-36 (50 mg/kg, daily).
It was also included in the combined treatment Afatinib (a tyrosine receptor kinase inhibitor against EGFR) and SD-36 (PROTAC degrader against STAT3).

[3] = test system: Egfr^lox/lox; Raf1^lox/lox PDAC cells; experiment: Colony formation assay of NR PDAC cells infected with Adeno-GFP or Adeno-CRE; type: cell-based; settings: 1 μM SD-36, 10 days
Description: FIG. 1. Colony formation assay of Egfr^lox/lox; Raf1^lox/lox PDAC cells infected with Adeno-GFP and Adeno-CRE viral particles in combination with small-hairpin RNA (shRNA) against STAT3 and Scr (empty vector) as control. 5000 cells were seeded for 10 days. B. Western blot analysis of the expression of EGFR, RAF1 and STAT3 of cell-lysate extracts. GAPDH was used as loading control.
(§2) FIG. 2. A. Colony formation assay of Egfr^lox/lox; Raf1^lox/lox PDAC cells infected with Adeno-GFP and Adeno-CRE viral particles in combination with treatment with 1 μM SD-36. 5000 cells were seeded for 10 days and culture medium was changed every day. B. Western blot analysis of the expression of STAT3 of cell-lysate extracts. GAPDH was used as loading control.
as §1
The expression of STAT3 was targeted by shRNAs after genetic deletion of Egfr and Raf1 in NR cells by Adeno-GFP and Adeno-GFP-CRE infection. […]

STAT3 [4] = biological target: T1, STAT3 (Mus musculus, UniProt P42227); experiment: Western blot analysis of STAT3 expression in cell-lysate extracts; type: cell-based; settings: NR PDAC cells treated with SD-36; GAPDH loading control
T1 construct: Western blot analysis of the expression of STAT3 of cell-lysate extracts; endogenous in cells; host or cells: Egfr lox/lox; Raf1 lox/lox PDAC (NR) tumor cells infected with Adeno-GFP or Adeno-CRE
T1 sequence (P42227 whole entry): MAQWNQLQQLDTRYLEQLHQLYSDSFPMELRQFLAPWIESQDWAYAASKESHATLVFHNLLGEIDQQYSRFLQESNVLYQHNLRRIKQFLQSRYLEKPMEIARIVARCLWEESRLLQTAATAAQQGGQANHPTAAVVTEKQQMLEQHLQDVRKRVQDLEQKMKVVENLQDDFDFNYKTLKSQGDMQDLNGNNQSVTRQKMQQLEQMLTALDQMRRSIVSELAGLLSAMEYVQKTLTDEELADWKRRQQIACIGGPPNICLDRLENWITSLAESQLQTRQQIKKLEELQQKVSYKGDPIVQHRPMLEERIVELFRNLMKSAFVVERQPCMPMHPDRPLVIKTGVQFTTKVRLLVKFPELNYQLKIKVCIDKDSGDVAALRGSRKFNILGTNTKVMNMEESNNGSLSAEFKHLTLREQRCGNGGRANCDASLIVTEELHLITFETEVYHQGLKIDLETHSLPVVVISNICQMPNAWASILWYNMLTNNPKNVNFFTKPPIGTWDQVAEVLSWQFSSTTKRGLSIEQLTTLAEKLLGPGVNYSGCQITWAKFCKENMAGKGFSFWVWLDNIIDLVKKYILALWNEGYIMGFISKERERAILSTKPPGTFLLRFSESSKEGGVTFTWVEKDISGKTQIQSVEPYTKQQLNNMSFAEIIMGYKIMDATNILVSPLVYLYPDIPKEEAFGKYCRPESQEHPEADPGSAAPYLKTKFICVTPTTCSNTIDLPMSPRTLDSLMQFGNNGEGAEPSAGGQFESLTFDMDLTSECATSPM
Description: as §2
The expression of STAT3 was targeted by shRNAs after genetic deletion of Egfr and Raf1 in NR cells by Adeno-GFP and Adeno-GFP-CRE infection. […] NR tumor cells, previously infected with Adeno-GFP and Adeno-GFP-CRE virus to eliminate the EGFR and the Raf1 (floxed targets), were treated with SD-36 for 10 days in a colony formation assay. Elimination of the targets was very efficient.

[5] = test system: pancreatic ductal adenocarcinoma (PDAC); settings: adjuvant treatment, patients with resectable disease; cited from earlier work

With `Cn1cnc2c(F)c(Nc3ccc(Br)cc3Cl)c(C(=O)NOCCO)cc21` [AZD6244] as the molecule, how does the STAT3 activation (STAT3 [1]) read?
The STAT3 activation was “significantly activated”.

With `COc1cccc(-c2cc(=O)c3ccccc3o2)c1N` [PD98059] as the molecule, how does the STAT3 activation (STAT3 [1]) read?
The STAT3 activation was “significantly activated”.

For `NC(=O)CC[C@H](NC(=O)[C@@H]1CC[C@@H]2CCN(C(=O)CCCCCC#Cc3cccc4c3CN(C3CCC(=O)NC3=O)C4=O)C[C@H](NC(=O)c3cc4cc(C(F)(F)P(=O)(O)O)ccc4[nH]3)C(=O)N21)C(=O)NC(c1ccccc1)c1ccccc1` (stereo partly shown) [SD-36], which tumor growth [2] is on record?
The tumor growth was “significant delay and slight reduction of tumor growth”.

And the “growth of NR cells that express Egfr and Raf1 (toxicity)” value ([3]; Adeno-GFP infected NR cells, versus vehicle control)?
Its value is “grew similarly as the vehicle control”.

And the “colony formation / cell death of NR tumor cells” value ([3]; NR cells after deletion of Egfr and Raf1 (Adeno-CRE))?
The value was “cell death of NR tumor cells”.

And the STAT3 degradation (STAT3 [4])?
The STAT3 degradation was “effectively degraded STAT3”.

Which “median overall survival (OS)” value [5] does the source give for FOLFIRINOX here?
Its value is 54 months.
